US4780420A (Yale University, priority 1985, dated 1988)
Read-outs that look alike come from different tables or passages of the source.

Experiments:
progesterone receptor [1] = molecular target: T1, progesterone receptor (Oryctolagus cuniculus, UniProt P06186); assay: Progesterone receptor assay: competition with [^3 H]R5020 binding; parameters: species or system rabbit
T1 construct: On the fifth day the uterus was excised, weighed and homogenized; from tissue
T1 sequence (P06186 1-930): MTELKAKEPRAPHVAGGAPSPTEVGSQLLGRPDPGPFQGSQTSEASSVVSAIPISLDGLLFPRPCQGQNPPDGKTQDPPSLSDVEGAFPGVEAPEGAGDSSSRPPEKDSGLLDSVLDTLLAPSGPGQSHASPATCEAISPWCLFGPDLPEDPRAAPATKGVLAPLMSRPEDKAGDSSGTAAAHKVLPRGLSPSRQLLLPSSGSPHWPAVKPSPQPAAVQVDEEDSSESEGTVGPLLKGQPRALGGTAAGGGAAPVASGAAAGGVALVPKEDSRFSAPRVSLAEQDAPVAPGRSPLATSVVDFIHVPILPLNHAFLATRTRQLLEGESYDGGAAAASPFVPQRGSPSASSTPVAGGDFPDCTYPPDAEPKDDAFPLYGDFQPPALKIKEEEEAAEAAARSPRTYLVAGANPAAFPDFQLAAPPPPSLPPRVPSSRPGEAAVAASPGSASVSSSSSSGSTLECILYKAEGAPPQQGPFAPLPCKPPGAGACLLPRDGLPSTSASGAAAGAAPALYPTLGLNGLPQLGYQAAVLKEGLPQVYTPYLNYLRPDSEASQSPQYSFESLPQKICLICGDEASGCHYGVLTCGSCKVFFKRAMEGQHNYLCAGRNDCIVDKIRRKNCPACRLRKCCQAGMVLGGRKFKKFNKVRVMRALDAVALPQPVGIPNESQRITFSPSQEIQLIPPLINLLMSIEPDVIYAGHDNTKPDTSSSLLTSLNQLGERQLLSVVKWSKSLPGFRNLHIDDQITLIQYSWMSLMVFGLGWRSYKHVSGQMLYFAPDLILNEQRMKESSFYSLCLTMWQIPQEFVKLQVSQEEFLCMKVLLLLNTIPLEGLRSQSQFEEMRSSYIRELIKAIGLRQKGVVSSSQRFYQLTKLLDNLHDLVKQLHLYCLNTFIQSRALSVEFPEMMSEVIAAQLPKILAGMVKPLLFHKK
Method: On the fifth day the uterus was excised, weighed and homogenized at 0° C. in 1.5 volumes of iced buffer containing: 1 mM dithiothreitol, 0.15 mM Na2 EDTA, 30% glycerol, 20 mM sodium molybdate, 10 mM Tris/HCl, pH 7.4 (4° C.). Homogenization was accomplished with three 10 second bursts of Polytron homogenizer. The homogenate was centrifuged at 3,000×g for 10 min. and the resulting supernatant was centrifuged at 100,000×g for 1 hour. The final supertant (cytosol) was diluted with homogenization buffer to afford 20-40% binding of a trace of [^3 H]R5020 (90 Ci/mMol), 10,000 dpm, and 50 μl of the appropriate radioinert compound. Non-specific binding was evaluated in tubes containing 2 μM R5020. After incubating at 4° C. overnight, free and bound steroids were separated by the addition of 100 μl of a stirred suspension of charcoal (5 mg/ml) in 10 mM Tris-HCl, pH 7.4 (4° C.), 0.15 mM Na2 EDTA. After mixing and standing on ice for 10 min., the tubes were centrifuged at 1500×g for 10 mins. and the "bound" radioactivity, in a 0.15 ml aliquot of the supernatant, was measured in a liquid scintillation counter.
In FIG. 1, Bo is the specifically bound [^3 H]R5020 alone and b is the specifically bound [^3 H]R5020 in the presence of the designated concentration of competitor. […] In Table 1 below, the values in parenthesis are the number of complete experiments which were conducted; the binding constants are means±SEM.

progesterone receptor [2] = molecular target: T1, progesterone receptor; assay: Saturation and Scatchard analysis of the progesterone receptor with [^125 I]EVNT and [^3 H]R5020; type: binding, rabbit; conditions: for slope and intercept of the Scatchard plots, i.e. -Ka and the binding capacity (in words): FIG. 3, R5020 vs EVNT
progesterone receptor [3] = molecular target: T1, progesterone receptor; assay: Competition of a series of steroids with [^3 H]R5020 and [^125 I]EVNT (specificity); type: binding, rabbit; conditions: for competing for sites with either ligand (in words): [^3 H]R5020 and [^125 I]EVNT; for activity at 0.003 µM: competitor 3 nM; for activity at 0.1 µM: competitor 100 nM
Method: To be sure that [^125 I]EVNT and [^3 H]R5020 bound with similar specificities, experiments were performed in which a series of steroids competed with the two differently labelled ligands.
Bo is dpm specifically bound when
B is dpm bound in the presence of […]

[4] = Storage stability by thin layer chromatography; type: physicochemical; conditions: 4° C., 10% ethanol in benzene
Method: The radioactive product, [^125 I]EVNT, was stored at 4° C. in the alcoholic benzene solution.

estrogen receptor = conditions: Hansen et al., Jogoda et al.; cited from earlier work
[5] = in vivo; cited from earlier work
[6] = radioligand [^3 H]R5020 (0.67 nM), read-out: B/Bo × 10^2
[7] = radioligand [^125 I]EVNT (0.18 nM), read-out: B/Bo × 10^2
[8] = read-out: B/Bo × 10^2, radioligand [^3 H]R5020 (0.67 nM)
[9] = read-out: B/Bo × 10^2, radioligand [^125 I]EVNT (0.18 nM)
[10] = estrogen stimulated rabbit uterine cytosol, five experiments

C[C@]12CC[C@H]3[C@@H](CCC4=CC(=O)CC[C@@H]43)[C@@H]1C[C@@H](I)[C@@H]2O [INT, 16α-Iodo-4-estrene-17β-ol-3-one]
Ki (progesterone receptor [1]): 39.8 nM
binding to the progesterone receptor (in words) (progesterone receptor [1]): bind the progesterone receptor with high affinity

CCC(=O)[C@@]1(C)CC[C@H]2[C@@H]3CCC4=CC(=O)CCC4=C3CC[C@@]21C [R5020, 17α,21-dimethyl-19-nor-4,9-pregnadiene-3,20-dione]
Kd (progesterone receptor [1]; R5020, footnote *Kd, rabbit uterine cytosol, mean±SEM (5 experiments)): 1.05 ± 0.19 nM
slope and intercept of the Scatchard plots, i.e. -Ka and the binding capacity (in words) (progesterone receptor [2]): almost the same
competing for sites with either ligand (in words) (progesterone receptor [3]): substantial competition
activity at 0.003 µM (progesterone receptor [3]; [6]): 34%
activity at 0.1 µM (progesterone receptor [3]; [6]): 0%
activity at 0.003 µM (progesterone receptor [3]; [7]): 74%
activity at 0.1 µM (progesterone receptor [3]; [7]): 0%

C[C@]12CC[C@H]3[C@@H](CCC4=CC(=O)CC[C@@]43C)[C@@H]1CC[C@@H]2O [Testosterone]
competing for sites with either ligand (in words) (progesterone receptor [3]): ineffective in competing for sites with either ligand
activity at 0.003 µM (progesterone receptor [3]; [8]): 100%
activity at 0.1 µM (progesterone receptor [3]; [8]): 105%
activity at 0.003 µM (progesterone receptor [3]; [9]): 101%
activity at 0.1 µM (progesterone receptor [3]; [9]): 98%

C[C@]12CC[C@H]3[C@@H](CCC4=CC(=O)CC[C@@H]43)[C@@H]1CC[C@@]2(O)/C=C\I [ZVNT, Z-17α-(2-iodovinyl)-4-estrene-17β-ol-3-one]
Ki (progesterone receptor [1]): 1.81 nM
binding to the progesterone receptor (in words) (progesterone receptor [1]; listed as Z 17α-(2-iodovinyl) analog of 19-nortestosterone): bind the progesterone receptor with high affinity
binding to the progesterone receptor (in words) (progesterone receptor [1]; listed as Z isomer): somewhat greater affinity for the progesterone receptor

CC(=O)[C@H]1CC[C@H]2[C@@H]3CCC4=CC(=O)CC[C@]4(C)[C@H]3CC[C@]12C [Progesterone]
competing for sites with either ligand (in words) (progesterone receptor [3]): substantial competition
activity at 0.003 µM (progesterone receptor [3]; [6]): 94%
activity at 0.1 µM (progesterone receptor [3]; [6]): 37%
activity at 0.003 µM (progesterone receptor [3]; [7]): 91%
activity at 0.1 µM (progesterone receptor [3]; [7]): 22%

C[C@@H]1C[C@H]2[C@@H]3CCC4=CC(=O)C=C[C@]4(C)[C@@]3(F)[C@@H](O)C[C@]2(C)[C@@]1(O)C(=O)CO [Dexamethasone]
competing for sites with either ligand (in words) (progesterone receptor [3]): ineffective in competing for sites with either ligand
activity at 0.003 µM (progesterone receptor [3]; [6]): 103%
activity at 0.1 µM (progesterone receptor [3]; [6]): 101%
activity at 0.003 µM (progesterone receptor [3]; [7]): 96%
activity at 0.1 µM (progesterone receptor [3]; [7]): 100%

CCC(=O)[C@@]1(C)CC[C@H]2[C@@H]3CCC4=CC(=O)CCC4=C3CC[C@@]21C [[^3 H]R5020, [^3 H]17α,21-dimethyl-19-nor-4,9-pregnadiene-3,20-dione]
binding capacity (progesterone receptor [2]; [10]): 666 ± 198 pM
Kd (progesterone receptor [2]; estrogen stimulated rabbit uterine cytosol, five experiments, ± SEM, read-out: Association constant Ka (converted)): 0.8 nM

C[C@]12CCC(=O)C=C1CC[C@@H]1[C@@H]2[C@@H](O)C[C@@]2(C)[C@H]1CC[C@]2(O)C(=O)CO [Cortisol]
competing for sites with either ligand (in words) (progesterone receptor [3]): ineffective in competing for sites with either ligand
activity at 0.003 µM (progesterone receptor [3]; [6]): 98%
activity at 0.1 µM (progesterone receptor [3]; [6]): 106%
activity at 0.003 µM (progesterone receptor [3]; [7]): 100%
activity at 0.1 µM (progesterone receptor [3]; [7]): 102%

C[C@]12CC[C@H]3[C@@H](CCC4=CC(=O)CC[C@@H]43)[C@@H]1CC[C@@]2(O)/C=C/[125I] [[^125 I]EVNT]
Kd (progesterone receptor [2]): 1.05 nM
binding capacity (progesterone receptor [2]; [10]): 921 pM
stable for a period of at least [4]: 2-3 months

C[C@]12CC[C@@H]3c4ccc(O)cc4CC[C@H]3[C@@H]1CC[C@@]2(O)/C=C/I [E-17α-[2-iodovinyl]analogs of estradiol]
binding to the estrogen receptor (in words) (estrogen receptor): bind to the estrogen receptor
concentration in estrogen target tissues (in words) [5]: concentrate in estrogen target tissues

C[C@]12CC[C@H]3[C@@H](CCC4=CC(=O)CC[C@@H]43)[C@@H]1CC[C@@]2(O)/C=C/I [EVNT, E-17α-(2-iodovinyl)-4-estrene-17β-ol-3-one]
Ki (progesterone receptor [1]): 4.26 ± 0.94 nM
binding to the progesterone receptor (in words) (progesterone receptor [1]): bind the progesterone receptor with high affinity
slope and intercept of the Scatchard plots, i.e. -Ka and the binding capacity (in words) (progesterone receptor [2]): almost the same
level of non-specific binding (in words) (progesterone receptor [2]; FIGS. 2A and 2B): satisfactory and almost identical to that seen with R5020
competing for sites with either ligand (in words) (progesterone receptor [3]): substantial competition
activity at 0.003 µM (progesterone receptor [3]; [8]): 42%
activity at 0.1 µM (progesterone receptor [3]; [8]): 0%
activity at 0.003 µM (progesterone receptor [3]; [9]): 74%
activity at 0.1 µM (progesterone receptor [3]; [9]): 0%

C[C@]12CCC(=O)C[C@@H]1CC[C@@H]1[C@@H]2CC[C@]2(C)[C@@H](O)CC[C@@H]12 [5α-DHT, 5α-dihydrotestosterone]
competing for sites with either ligand (in words) (progesterone receptor [3]): ineffective in competing for sites with either ligand
activity at 0.003 µM (progesterone receptor [3]; [8]): 101%
activity at 0.1 µM (progesterone receptor [3]; [8]): 95%
activity at 0.003 µM (progesterone receptor [3]; [9]): 100%
activity at 0.1 µM (progesterone receptor [3]; [9]): 91%
